# Literature values, collected in patent US20170121368A1, “NOVEL COMPOUNDS COMPRISING A BOMBESIN DERIVATIVE, A PROCESS FOR THE PREPARATION THEREOF AND A NUCLEAR MOLECULAR IMAGING AGENT COMPRISING THE SAME” (priority 2015, published 2017).
# No end group written: not given here.
# Test system: human prostate cancer model
# Conditions: 68Ga label, PET, human prostate cancer model in laboratory mice
substance,measurement,value
"GRP: Gastrin-releasing peptide labeled with 68Ga, literature PET study (VPLPAGGGTVLTKMYPRGNHWAVGHLM-NH2; ends and bridges not checked; also: 68Ga radiolabel; UniProt P07492 24-50, looked up)",uptake rate,9.5 % ID/g
